Experimental findings from ChEMBL document CHEMBL1134065, “Structure-Activity study of retinoid agonists bearing substituted dicarba-closo-dodecaborane. Relation between retinoidal activity and conformation of two aromatic nuclei” (2001) are described below.

The test system of assay [1] is HL-60. The assay can be described thus: HL-60 differentiation-inducing activity at a dose of 10e-10 M. In kind it is functional, Homo sapiens.
Assay [2] concerns HL-60. The assay can be described thus: HL-60 differentiation-inducing activity at a dose of 10e-8 M. The format is functional, Homo sapiens.
In assay [3] the test system is HL-60. The assay can be described thus: HL-60 differentiation-inducing activity at a dose of 10e-9 M. The format is functional, Homo sapiens.
Assay [4] relates to HL-60. The assay can be described thus: HL-60 differentiation-inducing activity at a dose of 10e-9.5 M. In kind it is functional, Homo sapiens.
Assay [5] has as its system HL-60. The assay can be described thus: HL-60 differentiation-inducing activity at a dose of 10e-7 M. In kind it is functional, Homo sapiens.
Assay [6] has as its target T1, Retinoic acid receptor gamma (Homo sapiens) (UniProt P13631).
T1 sequence (whole entry): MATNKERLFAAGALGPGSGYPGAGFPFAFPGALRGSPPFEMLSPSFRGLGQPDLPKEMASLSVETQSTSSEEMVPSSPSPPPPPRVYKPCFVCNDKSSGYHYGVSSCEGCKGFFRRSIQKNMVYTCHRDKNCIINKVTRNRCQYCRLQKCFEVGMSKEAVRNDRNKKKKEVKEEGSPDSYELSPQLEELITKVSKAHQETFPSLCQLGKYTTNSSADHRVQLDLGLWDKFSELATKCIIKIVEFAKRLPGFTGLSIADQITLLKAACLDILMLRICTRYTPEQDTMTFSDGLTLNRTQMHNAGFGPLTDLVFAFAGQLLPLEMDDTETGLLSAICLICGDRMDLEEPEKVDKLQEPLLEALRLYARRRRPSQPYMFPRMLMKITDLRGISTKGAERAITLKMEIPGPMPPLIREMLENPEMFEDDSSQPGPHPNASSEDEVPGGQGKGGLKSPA
The assay can be described thus: Agonistic activity on Retinoic acid receptor gamma by transcriptional activation in COS-1 cells incubated at 10e-8 M. In kind it is functional, cell-based.

Assay [7] deals with T1, Retinoic acid receptor gamma (Homo sapiens). Description: Agonistic activity on Retinoic acid receptor gamma by transcriptional activation in COS-1 cells incubated at 10e-6 M. The format is functional, cell-based.
For assay [8] the target is unchanged. The assay can be described thus: Agonistic activity on Retinoic acid receptor gamma by transcriptional activation in COS-1 cells incubated at 10e-9 M. In kind it is functional, cell-based.
The target is the same in assay [9]. The assay can be described thus: Agonistic activity on Retinoic acid receptor gamma by transcriptional activation in COS-1 cells incubated at 10e-7 M. In kind it is functional, cell-based.

For `CC1(C)CCC(C)(C)c2cc(NC(=O)c3ccc(C(=O)O)cc3)ccc21` [TAMIBAROTENE], the Differentiated cells in the assay with HL-60 [1] is listed as about 5%; in the assay on HL-60 [2], about 85%; with HL-60 [3] it was about 75%; in the assay on HL-60 [4], about 40%.

Consider `CC1=C(/C=C/C(C)=C/C=C/C(C)=C/C(=O)O)C(C)(C)CCC1` [TRETINOIN], for which the Differentiated cells was about 85% with HL-60 [5], about 70% in the assay with HL-60 [2] and about 2% with HL-60 [3]. Besides, the Relative luciferase response is 12 in [6], 30 in assay [7], 6 in assay [8] and 14 in [9].
